Entries after “also recorded” stand apart in the source; their conditions may differ. Like-named read-outs stand apart in the source and are kept apart here.
Key:
179 lysC RNA [1] = type: binding, B. subtilis
[2] = biological target: RNA construct encompassing nucleotides 1 through 315 of the lysC 5′-UTR; settings: read-out: apparent KD; aptamer plus expression platform
[3] = tested on: lysC 5′-UTR fused to lacZ reporter gene; type: cell-based, B. subtilis; settings: wild-type construct, minimal medium plus 1 mM compound
179 lysC RNA [4] = assay: In-line probing of 179 lysC RNA; settings: read-out: apparent KD; half-maximal structural modulation
lysC 5′-UTR template = assay: In vitro transcription termination assay, lysC 5′-UTR; settings: 10 mM ligand, E. coli RNA polymerase, single-round
[5] = tested on: yitJ, yoaD and metK leader constructs; assay: In vitro transcription termination with T7 RNA polymerase, yitJ, yoaD and metK leaders; settings: 50 μM
251 yitJ RNA = type: binding, B. subtilis
metI leader construct = type: biochemical, B. subtilis
[6] = tested on: aptamer domain from B. subtilis cysH; type: binding
124 yitJ RNA = assay: In-line probing of 124 yitJ RNA; type: binding, B. subtilis; settings: minimized aptamer domain
ribD leader region = assay: In vitro transcription of ribD leader region; type: biochemical; settings: T7 or B. subtilis RNA polymerase, no additional protein factors
ribD RNA = assay: In-line probing of ribD RNA (RFN element); type: binding, B. subtilis; settings: read-out: apparent KD
Method: To assess whether the RFN element of ribD was responsive to FMN, a fragment of the corresponding 5′-UTR was 5′-^32P labeled and incubated in the absence and presence of FMN, and the resulting fragments were analyzed by polyacrylamide gel electrophoresis (PAGE). […] To obtain values for apparent dissociation constant (apparent KD) for FMN, in-line probing assays were repeated with trace amounts of ribD RNA and increasing concentrations of FMN; the ligand concentration that correlates with half-maximal modulation of RNA structure should reflect the apparent KD.

165 thiM RNA = type: binding, E. coli; settings: for Kd: read-out: apparent KD
Excerpt: (§1) Specifically, TPP-dependent modulation of the spontaneous cleavage of RNA constructs was visualized by polyacrylamide gel electrophoresis (PAGE). […] Some RNAs were subjected to no reaction, partial digestion with alkali, or partial digestion with RNase T1 (G-specific cleavage) (see FIG. 6a). Composite plots of the fraction of RNA cleaved at specific sites versus the logarithm of the concentration of ligand (e.g. FIG. 7a) were generated to provide an estimate of the apparent KD. Fraction cleaved values were normalized relative to the highest and lowest cleavage values measured for each site.
NR, ^−OH and T1 represent RNAs subjected to no reaction, partial digestion with alkali, or partial digestion with RNase Tl (G-specific cleavage), respectively. Product bands representing cleavage after selected G residues are numbered and identified by filled arrowheads. The asterisk identifies modulation of RNA structure involving the Shine-Dalgarno (SD) sequence. Gel separations were analyzed using a phosphorimager (Molecular Dynamics) and quantitated using ImageQuant software.

91 thiM RNA = type: binding, E. coli
Excerpt: as §1
ii. The thiM and thiC mRNA Leaders Serve as High-Affinity Metabolite Receptors. […] Arrows reflect the estimated concentration of TPP needed to attain half maximal modulation of RNA (apparent KD). […] The boxed data was generated using TPP with the truncated RNAs 91 thiM and 111 thiC. […] Details for the RNA probing analysis are similar to those described above in connection with FIG. 6A. The graphs were generated by ImageQuant software.

240 thiC RNA = assay: In-line probing of 240 thiC RNA; type: binding, E. coli; settings: Example 2, FIG. 7A; read-out: apparent KD
Method: Some RNAs were subjected to no reaction, partial digestion with alkali, or partial digestion with RNase T1 (G-specific cleavage) (see FIG. 6a). Composite plots of the fraction of RNA cleaved at specific sites versus the logarithm of the concentration of ligand (e.g. FIG. 7a) were generated to provide an estimate of the apparent KD. Fraction cleaved values were normalized relative to the highest and lowest cleavage values measured for each site. […] Reactions were conducted and analyzed as described in above for FIG. 6A. […] The truncated RNA 111 thiC is boxed. Nucleotides enclosed in boxes identify an alternative pairing.

[7] = biological target: TPP-binding domain of A. thaliana (128-nucleotide RNA); assay: In-line probing of Arabidopsis TPP-binding domain; design: species or system Arabidopsis thaliana; settings: read-out: apparent dissociation constant (KD)
btuB leader-lacZ fusion = assay: btuB-lacZ expression assay; type: cell-based, E. coli; settings: wild-type btuB leader
[8] = tested on: 202-nucleotide mRNA leader (btuB); assay: Equilibrium dialysis with btuB mRNA leader
[9] = biological target: 202-nucleotide leader sequence of the btuB mRNA; type: binding, Escherichia coli; settings: half-maximal structural modulation, 25° C., 20 mM MgCl2, pH 8.3; read-out: apparent KD
Method: Precursor mRNA leader molecules were prepared by in vitro transcription from templates generated by PCR (see In vivo Expression Constructs and Assays section below) and 5′ ^32p-labeled using methods described previously (Soukup and Breaker, Allosteric nucleic acid catalysts. Curr. Opin. Struct. Biol. 10, […] (2000)). Approximately 20 nM of labeled RNA precursor was incubated as described in the brief description of FIG. 1. Accompanying digestions were carried out using reaction conditions similar to those described previously (Soukup and Breaker, Relationship between internucleotide linkage geometry and the stability of […]. RNA 5, 1308-1325 (1999)). […]
Metabolite-dependent conformational changes in the 202-nucleotide leader sequence of the btuB mRNA. […] The image was generated using a phosphorimager (Molecular Dynamics), and cleavage yields were quantitated by using ImageQuant software. […]
The btuB mRNA leader forms a saturable binding site for AdoCbl. […] 5′-^32P-labeled mRNA leader molecules were incubated, separated, and analyzed as described in the in the legend to FIG. 1A, and include identical control and marker lanes as indicated. […] Fraction cleaved values were normalized relative to the highest and lowest cleavage values measured for each location, including the values obtained upon incubation in the absence of AdoCbl. […]

[10] = biological target: btuB mRNA leader mutants m4 and m5; type: binding, Escherichia coli; settings: mutants m4 and m5 (possible P4/P9 pseudoknot)
93 xpt RNA [11] = assay: In-line probing of 93 xpt RNA; type: binding, B. subtilis
[12] = tested on: xpt riboswitch variant with the C to U mutation at position 74, reporter construct; type: cell-based, B. subtilis
[13] = tested on: xpt-pbuX 5′-UTR fused to β-galactosidase reporter gene; assay: xpt-lacZ β-galactosidase reporter expression; type: cell-based, B. subtilis; settings: wild-type xpt construct
80 ydhL RNA = assay: In-line probing of 80 ydhL RNA; type: binding, B. subtilis
[14] = biological target: purine-binding aptamer from a pool of random-sequence RNAs; settings: cited from earlier work
93 xpt RNA [15] = assay: Equilibrium dialysis with 93 xpt RNA; type: binding, B. subtilis
[16] = tested on: wild-type ydhL riboswitch fused to β-galactosidase reporter gene; assay: ydhL-lacZ β-galactosidase reporter expression; type: cell-based, B. subtilis
purE RNA = assay: In-line probing of purE RNA; type: binding, B. subtilis; settings: 1 μM ligand
201 xpt RNA = assay: In-line probing of 201 xpt RNA; settings: read-out: apparent KD; limit of detection of the assay

With NCCCC[C@H](N)C(=O)O [L-lysine] the Kd (179 lysC RNA [1]; 1 μM RNA, 3H-lysine 50 nM to 2.5 μM, read-out: apparent KD (Scatchard plot)) was about 1000 nM, the “fraction of tritiated L-lysine in chamber b” value (179 lysC RNA [1]; 10 μM 179 lysC in chamber b, 50 nM 3H-lysine, 10 hr) was about 0.8 and the “restoration of equal tritium distribution by unlabeled competitor” value (179 lysC RNA [1]; 50 μM unlabeled compound, additional 10 hr) was “symmetric distribution of tritium is restored”. For the same compound, the Kd [2] was about 500000 nM, the “repression of β-galactosidase reporter expression” value [3] was “exhibits ligand-dependent modulation” and the Kd (179 lysC RNA [4]) was about 1000 nM. The “terminated product relative to total transcription yield” value (lysC 5′-UTR template) was about 76%.

With C[S+](CC[C@H](N)C(=O)O)C[C@H]1O[C@@H](n2cnc3c(N)ncnc32)[C@H](O)[C@@H]1O (some centres unmarked) [SAM, S-adenosylmethionine] the transcription termination [5] was “modest transcription termination”, the Kd (251 yitJ RNA) was about 200 nM and the termination product (metI leader construct; 50 μM effector, wild-type metI) was about 75%. For the same compound, the “additional yield in transcription termination” value (metI leader construct; mutant Mabc (six mutations)) was about 20%, the “affinity poorer than that of yitJ” value [6] was “more than 2 orders of magnitude” and the Kd (124 yitJ RNA) was about 4 nM.

With Cc1cc2nc3c(=O)[nH]c(=O)nc-3n(C[C@H](O)[C@H](O)[C@H](O)COP(=O)(O)O)c2cc1C [FMN, flavin mononucleotide] the “transcription termination at the intrinsic terminator” value (ribD leader region) was “specifically induced by FMN” and the Kd (ribD RNA) was about 5 nM.

In the case of Cc1ncc(C[n+]2csc(CCO[P@](=O)(O)OP(=O)(O)O)c2C)c(N)n1 [TPP, thiamine pyrophosphate], the structure modulation (165 thiM RNA; 40 μM each compound) is reported as “induce modulation”, the Kd (165 thiM RNA; Example 2, FIG. 7A) is reported as 600 nM and the Kd (165 thiM RNA; thiM RNA as reported in Example 3 (FIG. 13)) is reported as 500 nM. For the same compound, the “improvement of apparent KD compared to the longer construct (165 thiM)” value (91 thiM RNA) was “approximately 20 fold”, the Kd (240 thiC RNA) was 100 nM and the Kd [7] was about 50 nM.

With C/C1=C2/[N-]C([C@H](CC(N)=O)[C@@]2(C)CCC(=O)NC[C@@H](C)OP(=O)([O-])O[C@H]2[C@@H](O)[C@@H](n3cnc4cc(C)c(C)cc43)O[C@@H]2CO)[C@]2(C)N=C(/C(C)=C3N=C(/C=C4N=C1[C@@H](CCC(N)=O)C\4(C)C)[C@@H](CCC(N)=O)[C@]\3(C)CC(N)=O)[C@@H](CCC(N)=O)[C@]2(C)CC(N)=O.[CH2-][C@H]1O[C@@H](n2cnc3c(N)ncnc32)[C@@H](O)[C@@H]1O.[Co+3] [AdoCbl, 5′-deoxy-5′-adenosylcobalamin] the “regulatory effector function on reporter gene inside cells” value (btuB leader-lacZ fusion) was “down regulation of a reporter gene”, the “restoration of equal tritium distribution by excess unlabeled compound” value ([8]; 5,000 pmoles unlabeled compound added to chamber b) was “restores equal distribution of tritium” and the “cpm ratio (chamber b relative to a)” value ([8]; 3H-AdoCbl, mRNA leader in chamber b) was about 2. For the same compound, the Kd [9] was about 300 nM and the Kd [10] was about 5000 nM.

For Nc1nc2nc[nH]c2c(=O)[nH]1 [guanine], the “modulation of spontaneous cleavage pattern” value (93 xpt RNA [11]; 1 μM (adenine as much as 1 mM), 93 xpt and 201 xpt) was “undergo significant alteration”, the Kd (93 xpt RNA [11]; wild-type xpt RNA, Example 8 (FIG. 39a), read-out: apparent KD) was at most 5 nM and the “regulation of reporter expression” value [12] was “loss of regulation upon addition of guanine”. For the same compound, the “repression of β-galactosidase reporter expression” value [13] was “repressed by guanine; also recorded: causes repression of β-galactosidase expression”, the “binding / structural modulation” value (80 ydhL RNA) was “remains unchanged” and the Kd [14] was 1300 nM. The “tritiated guanine co-localized with RNA” value (93 xpt RNA [15]; 100 nM 3H-guanine, 300 nM RNA) was “greater than 90%”, the “redistribution of 3H-guanine by excess unlabeled competitor” value (93 xpt RNA [15]; 500 nM analog) was “redistributes” and the “shift of distribution of tritiated ligand by RNA” value (93 xpt RNA [15]; Example 8: 100 nM tritiated ligand, 3 μM RNA) was “able to shift the distribution of tritiated guanine”. For the same compound, the β-galactosidase activity [16] was “very low β-galactosidase activity”, the allosteric response (purE RNA) was “responds allosterically to guanine” and the Kd (201 xpt RNA) was at most 5 nM.

Reference: US8440810B2, “Riboswitches, methods for their use, and compositions for use with riboswitches” (Yale University, priority 2002, dated 2013)
